Laboratory results taken from patent US10214519B2, “Phosphatidylinositol 3-kinase inhibitors” (Gilead Sciences, Inc., priority 2016, dated 2019).

Each compound was assayed against PI3Kβ (Homo sapiens (Human), UniProt P42338) (assay: PI3K isoform TR-FRET enzymatic assay (PI3Kβ)). Conditions: 2× Km ATP, 30 minutes at 25° C.
Assay type: biochemical
Outline: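 IC50 came from four-parameter dose-response fits, normalized between DMSO and 1 μM wortmannin controls. The read-out was TR-FRET (615/665 nm) of PIP3 displacing fluorescent PIP3 from Europium GRP-1 after 10 mM EDTA termination. Compounds were incubated with purified heterodimeric PI3Kβ for 30 min at 25° C.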

Sequence of PI3Kβ (P42338 whole entry, canonical isoform): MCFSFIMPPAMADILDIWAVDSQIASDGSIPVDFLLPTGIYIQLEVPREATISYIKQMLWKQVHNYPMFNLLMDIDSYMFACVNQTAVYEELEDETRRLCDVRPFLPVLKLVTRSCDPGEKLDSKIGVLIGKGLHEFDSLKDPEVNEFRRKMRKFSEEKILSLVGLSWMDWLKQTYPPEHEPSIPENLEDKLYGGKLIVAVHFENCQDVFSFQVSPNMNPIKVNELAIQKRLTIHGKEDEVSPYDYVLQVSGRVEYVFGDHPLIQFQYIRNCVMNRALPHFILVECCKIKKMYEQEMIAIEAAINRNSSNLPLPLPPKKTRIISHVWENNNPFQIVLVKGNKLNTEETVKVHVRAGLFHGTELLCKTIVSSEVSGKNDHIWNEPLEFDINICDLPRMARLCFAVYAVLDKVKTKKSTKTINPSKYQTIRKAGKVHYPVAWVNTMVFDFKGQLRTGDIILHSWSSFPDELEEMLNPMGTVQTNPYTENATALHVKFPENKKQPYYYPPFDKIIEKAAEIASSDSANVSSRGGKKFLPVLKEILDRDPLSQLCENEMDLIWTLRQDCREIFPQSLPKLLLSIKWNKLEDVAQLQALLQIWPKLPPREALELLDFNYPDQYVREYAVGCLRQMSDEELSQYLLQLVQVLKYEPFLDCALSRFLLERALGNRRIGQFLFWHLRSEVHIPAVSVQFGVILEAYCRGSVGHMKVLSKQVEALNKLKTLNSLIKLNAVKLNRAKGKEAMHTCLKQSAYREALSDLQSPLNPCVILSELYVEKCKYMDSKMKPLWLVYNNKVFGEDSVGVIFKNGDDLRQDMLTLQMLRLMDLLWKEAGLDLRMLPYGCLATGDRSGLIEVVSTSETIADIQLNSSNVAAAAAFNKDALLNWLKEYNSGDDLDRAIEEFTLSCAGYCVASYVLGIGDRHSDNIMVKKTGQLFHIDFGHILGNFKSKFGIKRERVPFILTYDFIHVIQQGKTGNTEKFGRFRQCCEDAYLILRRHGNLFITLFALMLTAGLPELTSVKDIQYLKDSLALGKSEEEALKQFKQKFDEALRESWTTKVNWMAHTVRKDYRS
Sequence of PI3Kβ (P27986 whole entry partner, canonical isoform): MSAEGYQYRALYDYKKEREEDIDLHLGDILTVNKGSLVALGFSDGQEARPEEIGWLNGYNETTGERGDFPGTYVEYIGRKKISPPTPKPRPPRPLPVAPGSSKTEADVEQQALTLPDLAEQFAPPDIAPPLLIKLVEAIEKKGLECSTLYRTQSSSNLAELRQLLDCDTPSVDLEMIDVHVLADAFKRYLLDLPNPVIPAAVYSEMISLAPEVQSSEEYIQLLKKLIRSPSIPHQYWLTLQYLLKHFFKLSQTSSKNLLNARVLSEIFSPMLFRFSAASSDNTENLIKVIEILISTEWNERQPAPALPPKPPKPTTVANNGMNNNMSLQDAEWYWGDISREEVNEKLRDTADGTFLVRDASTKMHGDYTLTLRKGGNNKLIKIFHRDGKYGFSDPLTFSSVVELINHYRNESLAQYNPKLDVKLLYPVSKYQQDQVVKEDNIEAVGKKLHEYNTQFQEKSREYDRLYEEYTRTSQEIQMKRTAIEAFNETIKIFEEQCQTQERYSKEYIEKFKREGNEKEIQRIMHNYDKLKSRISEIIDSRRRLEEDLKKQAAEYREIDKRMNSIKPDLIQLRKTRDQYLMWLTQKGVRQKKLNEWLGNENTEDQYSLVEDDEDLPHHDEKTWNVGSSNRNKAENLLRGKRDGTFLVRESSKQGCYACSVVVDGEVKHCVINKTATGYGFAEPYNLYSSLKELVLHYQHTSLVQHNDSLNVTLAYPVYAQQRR

SMILES	IC50 [nM]
Cc1cc(-c2cc(N3CCOCC3)cc3c2nc(C)n3-c2ccnc3c(Cl)cccc23)n[nH]1 [Example 268, 4-[3-(8-chloroquinolin-4-yl)-2-methyl-7-(5-methyl-1H-pyrazol-3-yl)benzimidazol-5-yl]morpholine]	317
Cc1nc2c(-c3ccnn3C)cc(N3CCOCC3)cc2n1-c1ccnc2c(Cl)cccc12 [Example 269, 4-[3-(8-chloroquinolin-4-yl)-2-methyl-7-(2-methylpyrazol-3-yl)benzimidazol-5-yl]morpholine]	7000
Cc1nc2c(-c3cscn3)cc(N3CCOCC3)cc2n1-c1ccnc2c(Cl)cccc12 [Example 270, 4-[3-(8-chloroquinolin-4-yl)-2-methyl-7-(1,3-thiazol-4-yl)benzimidazol-5-yl]morpholine]	36
Cc1nc2c(-c3cccs3)cc(N3CCOCC3)cc2n1-c1ccnc2c(Cl)cccc12 [Example 271, 4-[3-(8-chloroquinolin-4-yl)-2-methyl-7-thiophen-2-ylbenzimidazol-5-yl]morpholine]	46
Cc1nc2c(-c3ccsc3)cc(N3CCOCC3)cc2n1-c1ccnc2c(Cl)cccc12 [Example 272, 4-[3-(8-chloroquinolin-4-yl)-2-methyl-7-thiophen-3-ylbenzimidazol-5-yl]morpholine]	65
Cc1nc2c(-c3ccc(C#N)s3)cc(N3CCOCC3)cc2n1-c1ccnc2c(Cl)cccc12 [Example 273, 5-[1-(8-chloroquinolin-4-yl)-2-methyl-6-morpholin-4-ylbenzimidazol-4-yl]thiophene-2-carbonitrile]	2600
Cc1nc2c(-c3ccco3)cc(N3CCOCC3)cc2n1-c1ccnc2c(Cl)cccc12 [Example 274, 4-[3-(8-chloroquinolin-4-yl)-7-(furan-2-yl)-2-methylbenzimidazol-5-yl]morpholine]	27
Cc1nc2c(-c3ccoc3)cc(N3CCOCC3)cc2n1-c1ccnc2c(Cl)cccc12 [Example 275, 4-[3-(8-chloroquinolin-4-yl)-7-(furan-3-yl)-2-methylbenzimidazol-5-yl]morpholine]	88
Cc1nc2c(-c3cncs3)cc(N3CCOCC3)cc2n1-c1ccnc2c(Cl)cccc12 [Example 276, 4-[3-(8-chloroquinolin-4-yl)-2-methyl-7-(1,3-thiazol-5-yl)benzimidazol-5-yl]morpholine]	420
Cc1nc2c(-c3cnco3)cc(N3CCOCC3)cc2n1-c1ccnc2c(Cl)cccc12 [Example 277, 4-[3-(8-chloroquinolin-4-yl)-2-methyl-7-(1,3-oxazol-5-yl)benzimidazol-5-yl]morpholine]	620
Cc1nc2c(-c3cnc(Cl)[nH]3)cc(N3CCOCC3)cc2n1-c1ccnc2c(Cl)cccc12 [Example 278, 4-[7-(2-chloro-1H-imidazol-5-yl)-3-(8-chloroquinolin-4-yl)-2-methylbenzimidazol-5-yl]morpholine]	4
CCc1nc2c(-c3cnc(Cl)[nH]3)cc(N3CCOCC3)cc2n1-c1ccnc2c(Cl)cccc12 [Example 279, 4-[7-(2-chloro-1H-imidazol-5-yl)-3-(8-chloroquinolin-4-yl)-2-ethylbenzimidazol-5-yl]morpholine]	10
CCc1nc2c(-c3cnc(Cl)[nH]3)cc(N3CCOCC3)cc2n1-c1ccnc2c(F)ccc(F)c12 [Example 280, 4-[7-(2-chloro-1H-imidazol-5-yl)-3-(5,8-difluoroquinolin-4-yl)-2-ethylbenzimidazol-5-yl]morpholine]	13
CCCc1nc2c(-c3cnc(Cl)[nH]3)cc(N3CCOCC3)cc2n1-c1ccnc2c(Cl)cccc12 [Example 281, 4-[7-(2-chloro-1H-imidazol-5-yl)-3-(8-chloroquinolin-4-yl)-2-propylbenzimidazol-5-yl]morpholine]	15
Cc1cc(-n2c(C)nc3c(-c4cnc(Cl)[nH]4)cc(N4CCOCC4)cc32)c2cccc(F)c2n1 [Example 282, 4-[7-(2-chloro-1H-imidazol-5-yl)-3-(8-fluoro-2-methylquinolin-4-yl)-2-methylbenzimidazol-5-yl]morpholine]	25
CCc1nc2c(-c3cnc(Cl)[nH]3)cc(N3CCOCC3)cc2n1-c1cc(C)nc2c(F)cccc12 [Example 283, 4-[7-(2-chloro-1H-imidazol-5-yl)-2-ethyl-3-(8-fluoro-2-methylquinolin-4-yl)benzimidazol-5-yl]morpholine]	71
CCc1nc2c(-c3cnc(Cl)[nH]3)cc(N3CCOCC3)cc2n1-c1ccnc2c(F)cccc12 [Example 284, 4-[7-(2-chloro-1H-imidazol-5-yl)-2-ethyl-3-(8-fluoroquinolin-4-yl)benzimidazol-5-yl]morpholine]	13
Clc1ncc(-c2cc(N3CCOCC3)cc3c2ncn3-c2ccnc3c(Cl)cccc23)[nH]1 [Example 285, 4-[7-(2-chloro-1H-imidazol-5-yl)-3-(8-chloroquinolin-4-yl)benzimidazol-5-yl]morpholine]	4

SMILES	IC50 [nM]
Fc1ccc(F)c2c(-n3c(C4CC4)nc4c(-c5cnc(Cl)[nH]5)cc(N5CCOCC5)cc43)ccnc12 [Example 286, 4-[7-(2-chloro-1H-imidazol-5-yl)-2-cyclopropyl-3-(5,8-difluoroquinolin-4-yl)benzimidazol-5-yl]morpholine]	14
Fc1cccc2c(-n3c(C4CC4)nc4c(-c5cnc(Cl)[nH]5)cc(N5CCOCC5)cc43)ccnc12 [Example 287, 4-[7-(2-chloro-1H-imidazol-5-yl)-2-cyclopropyl-3-(8-fluoroquinolin-4-yl)benzimidazol-5-yl]morpholine]	56
Cc1nc2c(-c3cnc(Cl)[nH]3)cc(N3CCOCC3)cc2n1-c1ccnc2c(Cl)ccc(F)c12 [Example 288, 4-[3-(8-chloro-5-fluoroquinolin-4-yl)-7-(2-chloro-1H-imidazol-5-yl)-2-methylbenzimidazol-5-yl]morpholine]	5
Cc1nc2c(-c3cnc(Cl)[nH]3)cc(N3CCOCC3)cc2n1-c1ccnc2c(Cl)cc(F)cc12 [Example 289, 4-[3-(8-chloro-6-fluoroquinolin-4-yl)-7-(2-chloro-1H-imidazol-5-yl)-2-methylbenzimidazol-5-yl]morpholine]	24
Clc1ncc(-c2cc(N3CCOCC3)cc3c2nc(C2CC2)n3-c2ccnc3c(Cl)cccc23)[nH]1 [Example 290, 4-[7-(2-chloro-1H-imidazol-5-yl)-3-(8-chloroquinolin-4-yl)-2-cyclopropylbenzimidazol-5-yl]morpholine]	68
Clc1ncc(-c2cc(N3CCOCC3)cc3c2nc(C2COC2)n3-c2ccnc3c(Cl)cccc23)[nH]1 [Example 291, 4-[7-(2-chloro-1H-imidazol-5-yl)-3-(8-chloroquinolin-4-yl)-2-(oxetan-3-yl)benzimidazol-5-yl]morpholine]	27
Fc1cccc2c(-n3cnc4c(-c5cnc(Cl)[nH]5)cc(N5CCOCC5)cc43)ccnc12 [Example 292, 4-[7-(2-chloro-1H-imidazol-5-yl)-3-(8-fluoroquinolin-4-yl)benzimidazol-5-yl]morpholine]	42
Cc1nc2c(-c3cnc(Cl)[nH]3)cc(N3CCOCC3)cc2n1-c1ccnc2cc(F)ccc12 [Example 293, 4-[7-(2-chloro-1H-imidazol-5-yl)-3-(7-fluoroquinolin-4-yl)-2-methylbenzimidazol-5-yl]morpholine]	38
Cc1nc2c(-c3cnc(Cl)[nH]3)cc(N3CCOCC3)cc2n1-c1ccnc2c(Cl)c(F)ccc12 [Example 294, 4-[3-(8-chloro-7-fluoroquinolin-4-yl)-7-(2-chloro-1H-imidazol-5-yl)-2-methylbenzimidazol-5-yl]morpholine]	6
CCc1nc2c(-c3cnc(Cl)[nH]3)cc(N3CCOCC3)cc2n1-c1ccnc2c(Cl)c(F)ccc12 [Example 295, 4-[3-(8-chloro-7-fluoroquinolin-4-yl)-7-(2-chloro-1H-imidazol-5-yl)-2-ethylbenzimidazol-5-yl]morpholine]	12
Fc1ccc2c(-n3c(C4CC4)nc4c(-c5cnc(Cl)[nH]5)cc(N5CCOCC5)cc43)ccnc2c1Cl [Example 296, 4-[3-(8-chloro-7-fluoroquinolin-4-yl)-7-(2-chloro-1H-imidazol-5-yl)-2-cyclopropylbenzimidazol-5-yl]morpholine]	17
Cc1ncc(-c2cc(N3CCOCC3)cc3c2nc(C)n3-c2ccnc3c(Cl)cccc23)s1 [Example 297, 4-[3-(8-chloroquinolin-4-yl)-2-methyl-7-(2-methyl-1,3-thiazol-5-yl)benzimidazol-5-yl]morpholine]	3800
Cc1nc2c(-c3cnc(Cl)[nH]3)cc(N3CCOCC3)cc2n1-c1ccnc2c(F)ccc(F)c12 [Example 298, 4-[7-(2-chloro-1H-imidazol-5-yl)-3-(5,8-difluoroquinolin-4-yl)-2-methylbenzimidazol-5-yl]morpholin]	10
CCCc1nc2c(-c3cnc(Cl)[nH]3)cc(N3CCOCC3)cc2n1-c1ccnc2c(F)ccc(F)c12 [Example 299, 4-[7-(2-chloro-1H-imidazol-5-yl)-3-(5,8-difluoroquinolin-4-yl)-2-propylbenzimidazol-5-yl]morpholine]	17
CC(C)Cc1nc2c(-c3cnc(Cl)[nH]3)cc(N3CCOCC3)cc2n1-c1ccnc2c(F)ccc(F)c12 [Example 300, 4-[7-(2-chloro-1H-imidazol-5-yl)-3-(5,8-difluoroquinolin-4-yl)-2-(2-methylpropyl)benzimidazol-5-yl]morpholine]	14
Clc1ncc(-c2cc(N3CCOCC3)cc3c2nc(CC2CC2)n3-c2ccnc3c(Cl)cccc23)[nH]1 [Example 301, 4-[7-(2-chloro-1H-imidazol-5-yl)-3-(8-chloroquinolin-4-yl)-2-(cyclopropylmethyl)benzimidazol-5-yl]morpholine]	20
Fc1ccc(F)c2c(-n3c(CC4CC4)nc4c(-c5cnc(Cl)[nH]5)cc(N5CCOCC5)cc43)ccnc12 [Example 302, 4-[7-(2-chloro-1H-imidazol-5-yl)-2-(cyclopropylmethyl)-3-(5,8-difluoroquinolin-4-yl)benzimidazol-5-yl]morpholine]	24
